Laboratory results published in patent publication US5710130A, “Antithrombotic agents” (Eli Lilly and Company, priority 1995, dated 1998).
Structures can show the parent of a compound that is named as a salt.

Assays:
human plasma [1] = assay: Human plasma anticoagulation, thrombin time (TT); format: biochemical; conditions: concentration required to double thrombin time, linear extrapolation
In short: (§1)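 Test compounds are added to human plasma at many concentrations. Clotting is then initiated by reagent (Thromboplastin-C for PT; Actin for 120 s followed by 0.02M calcium chloride for APTT; 10 NIH units/mL bovine thrombin for TT) and timed instrumentally. The concentration giving twofold prolongation is derived by linear extrapolation.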

human plasma [2] = assay: Human plasma anticoagulation, activated partial thromboplastin time (APTT); format: biochemical; conditions: concentration required to double APTT, linear extrapolation
In short: as §1

human plasma [3] = assay: Human plasma anticoagulation, prothrombin time (PT); format: biochemical; conditions: concentration required to double PT, linear extrapolation
Procedure: Dog plasma and rat plasma is obtained from conscious mixed-breed hounds (either sex, Hazelton-LRE, Kalamazoo, Mich., U.S.A.) or from anesthetized male Sprague-Dawley rats (Harlan Sprague-Dawley, Inc., Indianapolis, Ind., U.S.A.) by venipuncture into 3.8 percent citrate. Fibrinogen is prepared from in-date ACD human blood as the fraction I-2 according to previous procedures and specifications. […] Human fibrinogen is also purchased as 98 percent pure/plasmin free from American Diagnostica, Greenwich, Conn. Coagulation reagents ACTIN, Thromboplastin, and Human plasma are from Baxter Healthcare Corp., Dade Division, Miami, Fla. Bovine thrombin from Parke-Davis ([…], Mich.) is used for coagulation assays in plasma.
Coagulation assay procedures are as previously described. […] A CoAScreener coagulation instrument (American LABor, Inc.) is used for all coagulation assay measurements. The prothrombin time (PT) is measured by adding 0.05 mL saline and 0.05 mL Thromboplastin-C reagent to 0.05 mL test plasma. The activated partial thromboplastin time (APTT) is measured by incubation of 0.05 mL test plasma with 0.05 mL Actin reagent for 120 seconds followed by 0.05 mL CaCl2 (0.02M). The thrombin time (TT) is measured by adding 0.05 mL saline and 0.05 mL thrombin (10 NIH units/mL) to 0.05 mL test plasma. The compounds of Formula I are added to human or animal plasma over a wide range of concentrations to determine prolongation effects on the APTT, PT, and TT assays. Linear extrapolations are performed to estimate the concentrations required to double the clotting time for each assay.

[4] = Index of bioavailability (% Relative Activity) from plasma TT time course, oral vs i.v.; format: in vivo; conditions: p.o. dose per legend (20, 60 or 50 mg/kg)
Procedure: Parke Davis) at 37° C. […] Assays are done in duplicate and averaged. […] Each sample population represented alternating sequential time points.

Human Thrombin = Human Thrombin (Homo sapiens, UniProt P00734); assay: Inhibition of thrombin amidase activity (Kass), chromogenic substrate; format: biochemical; conditions: mean Kass over a range of concentrations; substrate N-benzoyl-Phe-Val-Arg-p-nitroanilide
thrombin = conditions: Bajusz et al., J. Med. Chem. 33, 1729-1735 (1990); cited from earlier work
[5] = target: T1, activated protein C (aPC) (Homo sapiens, UniProt P04070); assay: Inhibition of activated protein C (aPC), chromogenic substrate; format: biochemical; conditions: statement in words
T1 construct: made in house
Procedure: By substantially following the procedures described above for human thrombin, and using other human blood coagulation system serine proteases and proteases of the fibrinolytic system with the appropriate chromogenic substrates, identified below, selectivity of the compounds of the present invention with respect to the coagulation factor serine proteases and with respect to the fibrinolytic system serine proteases are evaluated as well as their substantial lack of interference with serine proteases of the fibrinolytic system. Thrombin inhibitors preferably should spare fibrinolysis induced by urokinase, tissue plasminogen activator (t-PA) and streptokinase. This would be important to the therapeutic use of such agents as an adjunct to streptokinase, t-PA or urokinase thrombolytic therapy and to the use of such agents as an endogenous fibrinolysis-sparing (with respect to t-PA and urokinase) antithrombotic agent. In addition to the lack of interference with the amidase activity of the fibrinolytic proteases, such fibrinolytic system sparing can be studied by the use of human plasma clots and their lysis by the respective fibrinolytic plasminogen activators.
Human factors X, Xa, IXa, XIa, and XIIa are purchased from Enzyme Research Laboratories, South Bend, Ind.; human urokinase from Leo Pharmaceuticals, Denmark; and recombinant activated Protein C (aPC) is prepared at Eli Lilly and Co. substantially according to U.S. Pat. No. 4,981,952. Chromogenic substrates: N-Benzoyl-Ile-Glu-Gly-Arg-p-nitroanilide (for factor Xa); N-Cbz-D-Arg-Gly-Arg-p-nitroanilide (for factor IXa assay as the factor Xa substrate); Pyroglutamyl-Pro-Arg-p-nitroanilide (for Factor XIa and for aPC); H-D-Pro-Phe-Arg-p-nitroanilide (for factor XIIa); and Pyroglutamyl-Gly-Arg-p-nitroanilide (for urokinase); are purchased from KabiVitrum, Stockholm, Sweden, or from Midwest Biotech, Fishers, Ind.. Bovine trypsin is purchased from Worthington Biochemicals, Freehold, N.J., and human plasma kallikrein from Kabi Vitrum, Stockholm, Sweden. […]

T1 sequence (P04070 212-450 limits assumed): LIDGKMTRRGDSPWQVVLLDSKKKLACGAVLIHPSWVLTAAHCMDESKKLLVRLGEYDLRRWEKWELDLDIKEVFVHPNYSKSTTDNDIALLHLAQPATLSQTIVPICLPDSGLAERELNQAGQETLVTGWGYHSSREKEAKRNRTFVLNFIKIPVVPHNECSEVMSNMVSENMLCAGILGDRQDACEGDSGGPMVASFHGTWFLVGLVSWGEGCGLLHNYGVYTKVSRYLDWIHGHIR
T1 sequence (P04070 43-197 partner limits assumed): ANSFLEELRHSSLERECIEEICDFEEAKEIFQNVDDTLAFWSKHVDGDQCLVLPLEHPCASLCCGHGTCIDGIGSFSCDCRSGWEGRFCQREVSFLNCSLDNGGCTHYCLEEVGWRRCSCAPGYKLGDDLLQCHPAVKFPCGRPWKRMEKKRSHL

Row | Compound | Human Plasma Anticoagulation 2x Clotting time TT (human plasma [1]) [ng/mL] | Human Plasma Anticoagulation 2x Clotting time APTT (human plasma [2]) | Human Plasma Anticoagulation 2x Clotting time PT (human plasma [3]) | % oral/i.v. activity (Rat), screening not completed [4] | Kass Human Thrombin (Human Thrombin) | direct inhibition of thrombin (thrombin) | inhibition of activated protein C (aPC) [5]
1 | CCS(=O)(=O)N[C@H](Cc1ccccc1)C(=O)N1[C@H](C(=O)NCc2ccc(C(=N)N)cc2)C[C@@H]2CCCC[C@@H]21 (relative stereo) [Example 45, hydrochloride] | 8 | 200 ng/mL | 330 ng/mL | NC^2 | – | – | –
2 | N=C(N)c1ccc(CNC(=O)[C@@H]2C[C@@H]3CCCC[C@@H]3N2C(=O)[C@@H](Cc2ccccc2)NCC(=O)O)cc1 (relative stereo) [Example 47, HOOCCH2 -D-Phe-cis-Ohi-p-NHCH2 C6 H4 C(NH)NH2.HCl] | 12 | 140 ng/mL | 270 ng/mL | NC^2 | 45 × 10^6 (L/mole) | – | –
3 | N=C(N)c1ccc(CNC(=O)[C@@H]2C[C@@H]3CCCC[C@@H]3N2C(=O)[C@@H](CC2CCCCC2)NCC(=O)O)cc1 (relative stereo) [Example 49, (S-cis)-N-[[4-(aminoiminomethyl)phenyl]methyl]-1-[N-(carboxymethyl)-D-cyclohexylalanyl-1H-indole-2-carboxamide hydrochloride] | 5 | – | – | NC^2 | – | – | –
4 | CC(C)(C)OC(=O)N[C@H](Cc1ccccc1)C(=O)N1CCC[C@H]1C(=O)N[C@H](C=O)CCCNC(=N)N [Boc-D-Phe-Pro-Arg-H] | – | – | – | – | – | potent direct inhibition | –
5 | CN[C@H](Cc1ccccc1)C(=O)N1CCC[C@H]1C(=O)N[C@H](C=O)CCCNC(=N)N [D-MePhe-Pro-Arg-H] | – | – | – | – | – | potent direct inhibition | –
6 | N=C(N)NCCC[C@@H](C=O)NC(=O)[C@@H]1CCCN1C(=O)[C@H](N)Cc1ccccc1 [D-Phe-Pro-Arg-H] | – | – | – | – | – | potent direct inhibition | –
7 | CCS(=O)(=O)N[C@H](Cc1ccccc1)C(=O)N1CCC[C@H]1C(=O)NCCc1ccc(C(=N)N)cc1 [Example 26, EtSO2 -D-Phe-Pro-p-NHCH2 CH2 -C6 H4 C(=NH)NH2.HCl] | 37 | 870 ng/mL | 750 ng/mL | NC^1 | – | – | –
8 | Cl.Cl.N=C(N)c1ccc(CNC(=O)C2CC3CCCCC3N2C(=O)C2NCCC3CCCCC32)cc1 [Example 42, D-1-Piq-cis-Ohi-p-NHCH2 C6 H4 C(NH)NH2.2HCl] | 20 | 270 ng/mL | 320 ng/mL | NC2 | 38 × 10^6 (L/mole) | – | –
9 | Cl.Nc1ccc(CNC(=O)[C@@H]2CCCN2C(=O)[C@@H](CC2CCCCC2)NCC(=O)O)c(F)c1 [Example 64, HO2 CCH2 -D-Cha-Pro-4-NHCH2 -3-F-C6 H3 NH2.HCl] | 23 | 900 ng/mL | 650 ng/mL | NC^3 | 15 × 10^6 (L/mole) | – | –
10 | N=C(N)c1ccc(CNC(=O)[C@@H]2CCCN2C(=O)[C@@H](CC2CCCCC2)NCC(=O)O)nc1 [Example 66, N-(carboxymethyl)-D-cyclohexylalanyl-N-[[5-(aminoiminomethyl)pyridin-2-yl]methyl]-L-prolinamide hydrochloride] | 7.9 | 180 ng/mL | 270 ng/mL | – | – | – | very weak inhibition
11 | N=C(N)C1=CNC(CNC(=O)[C@@H]2CCCN2C(=O)[C@@H](CC2CCCCC2)NCC(=O)O)CC1 (stereo partly drawn) [Example 68, N-(carboxymethyl)-D-cyclohexylalanyl-N-[[5-(aminoiminomethyl)-1,2,3,4-tetrahydropyridin-2-yl]methyl]L-prolinamide hydrochloride] | 4 | 49 ng/mL | 190 ng/mL | – | – | – | very weak inhibition
12 | Cl.Cl.Cl.N=C(N)c1ccc(CNC(=O)[C@@H]2CCCN2C(=O)[C@@H](CC2CCCCC2)NCC(=O)O)nn1 [Example 69, N-(carboxymethyl)-D-cyclohexylalanyl-N-[[6-(aminoiminomethyl)pyridazin-3-yl]methyl]-L-prolinamide tri-hydrochloride] | 5 | 110 ng/mL | 220 ng/mL | – | 340 × 10^6 (L/mole) | – | very weak inhibition
13 | N=C(N)c1ccc(CNC(=O)[C@@H]2CCCN2C(=O)[C@@H](CC2CCCCC2)NCC(=O)O)c(F)c1 [Example 71, N-(carboxymethyl)-D-cyclohexylalanyl-N-[[4-(aminoiminomethyl)-2-fluorophenyl]methyl]-L-prolinamide hydrochloride] | 1 | 89 ng/mL | 150 ng/mL | NC^1 | – | – | –
14 | N=C(N)c1cc(F)c(CNC(=O)[C@@H]2CCCN2C(=O)[C@@H](CC2CCCCC2)NCC(=O)O)c(F)c1 [Example 72, N-(carboxymethyl)-D-cyclohexylalanyl-N-[[4-(aminoiminomethyl-2,6-difluorophenyl]methyl]-L-prolinamide hydrochloride] | 1 | 160 ng/mL | 160 ng/mL | NC^1 | – | – | –
15 | N=C(N)c1ccc(CNC(=O)[C@@H]2CCCN2C(=O)[C@H](NCC(=O)O)C2CCCCC2)cc1 [Example 86, N-(carboxymethyl)-D-cyclohexylglycyl-N-[[4-(aminoiminomethyl)phenyl]methyl]-L-prolinamide hydrochloride] | 4 | 81 ng/mL | 180 ng/mL | – | 200 × 10^6 (L/mole) | – | –
16 | Cl.N=C(N)c1ccc(CNC(=O)CN(CCc2ccccc2)C(=O)CNCC(=O)O)cc1 [Example 89, HOOCCH2 -Gly-N-C6 H5 CH2 CH2 Gly-p-NHCH2 C6 H4 C(NH)NH2.HCl] | 570 | 51,000 ng/mL | 37,000 ng/mL | – | 0.14 × 10^6 (L/mole) | – | –
17 | HOOCCH2 -D-Phe-Pro(4-cis-isoamyl)-p-NHCH2 C6 H4 C(NH)NH2.HCl [Example 50] | 35 | 460 ng/mL | 420 ng/mL | – | 40 × 10^6 (L/mole) | – | –
